Experimental data reported in US5852003A, “Drug and pharmaceutical composition for the treatment of muscles” (Societe Valbiofrance, priority 1994, dated 1998).
“Also recorded” adds a separate entry of the source.

Key:
EDL muscles [1] = system: EDL muscles
Method: The experiment was conducted on seven Wistar rats aged two and a half months and weighing three hundred grams.
After annesthesia by ether, the EDL muscles (muscles of hind rat paws) were removed from the forefoot and mechanically damaged by applying a constant pressure on the entire length of the muscle, using a Pean forceps. The pressure was maintained for fifteen seconds, the forceps being closed at the second notch. The homogeneity of the lesion on the whole of the muscle was controlled by following its infarction for 30 seconds. The muscle was then put back in position and the skin sutured by linen thread.
The regeneration controls were injected with the same quantity of PBS alone. Depending on the experiments, injection took place before or after the lesion of the muscle. The 200 μl were injected in one minute and the product's diffusion was ensured by leaving the muscle for two minutes before putting it back in the forefoot.
The treated muscles and the controls were collected after 8 days of regeneration and then immediately frozen at -150° C. in isopentane. Frozen transverse sections of 10 μm thickness were made in the median region of the muscle. The dried sections were colored by Gomori trichrome.
The morphometric analysis of the number of fibers and of their diameter was performed on micrographic montages corresponding to a transverse half-section of muscle.

beta TGF = biological target: T1, beta TGF (Homo sapiens, UniProt P01137); experiment: protection of beta TGF against degradation by trypsin, beta TGF activity read on CCL64 cells; assay type: cell-based; settings: for % inhibiting activity of the incorporation of tritiated thymidine in CCL64 cells: 37° C. 10 min, dilution 50 times
T1 construct: from tissue; host or cells: human blood platelets
T1 sequence (P01137 279-390 limits assumed): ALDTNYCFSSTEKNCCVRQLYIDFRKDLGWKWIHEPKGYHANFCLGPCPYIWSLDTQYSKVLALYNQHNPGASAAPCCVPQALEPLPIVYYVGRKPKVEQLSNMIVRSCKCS
Method: In order to measure the capacity of certain CMDBSs to interact with members of the beta TGF family and, by means of this interaction, to protect the beta TGFs, a grading test was devised.
The beta 1 TFG is prepared from human blood platelets according to a protocol described in numerous publications (for example Growth factors and their receptors, 1992, vol 1 pp 419-472, written by A. Roberts and M. Sporn, edited by A. Roberts and M. Sporn, and published by Springer Verlag Berlin) and are commonly used by persons of ordinary skill in the art. The beta TGF biological activity test used in this example is that of the inhibition of CCL64 cells (from the American Tissue Culture Collection). This inhibition is measured by the ability of the beta TGF to inhibit the incorporation of tritiated thymidine in a dose dependent manner in these CCL64 cells stimulated by the FGF or by fetal calf serum according to the protocol described by Van Zolen in Progress in Growth Factor Research, 1990, 2, pp 131 to 152.
Two doses of beta TGF are used, one corresponding to the 50% inhibition capacity of the incorporation of tritiated thymidine (defined as the inhibiting activity unit) and the other corresponding to the 100% inhibition capacity.
The final volume of the incubated solution is adjusted to 1 ml and incubation is carried out at 37° C. for a varying length of time (10 minutes in the example described (Table 1)).
20 μl samples of are taken from each of the incubation reactions and added to CCL64 cells cultivated in 24-well plates, each well containing milliliter of culture medium according to the aforementioned protocol described by E. Zohlen. In these conditions, the final concentration of beta TGF per well is 1 ng/ml.
The incubation mixture contained 50 ng of beta TGF (in 0.1% bovine serum albumin) and trypsin (500 μg). Mesoglycan or sulodexide or dextran sulfate or dextran or sucrase are used at the dose of 5000 μg.
The beta TGF biological activity is measured as described above after a dilution of 50 times and by using CCL64 cells.

EDL muscles [2] = experiment: regeneration of skeletal muscle after deinnervation followed by crushing; assay type: in vivo, Wistar rats; settings: for Ratio regenerated/ contralateral intact (muscle weight): 10 μg injected after deinnervation and crushing; for % ratio treated/ ratio degenerated: 10 μg injected, PBS-treated muscle = 100
Method: The protocol is exactly the same as that described in Example 4 but the crushing of the muscle is preceded by section of the motor nerve at the entrance of the muscle.
The substances are in saline phosphate buffer solution (PBS).
Injection takes place after deinnervation and crushing , using a 50 μl microsyringe equipped with a flexible needle 60 mm in length and 0.4 mm in diameter. Two injections are carried out at an interval of 2 min. The volume injected is therefore 100 μl. The sucrase […] was supplied free of charge by D. Bar Shalom Bulk Medic, Denmark.
After sacrifice of the animal, the EDL muscles of the treated paw and the contralateral paw are weighed. Since individual variations in the weight of normal muscles in animals of the same age can reach 20%, the results were standardized by calculating the ratio of the treated muscle to its contralateral intact control.
This ratio was considered to be 100% for the muscles treated by PBS alone. The degree of regeneration of muscles treated by the different substances was calculated in % of the muscle injected by PBS.

complement system = experiment: anticomplement activity (CH50); settings: measured according to Mauzac et al.
coagulation = experiment: anticoagulant activity
trypsin = trypsin enzymatic activity on substrate S.87
Method: The enzymatic activity of trypsin was measured by spectrophotometric absorption of the transformation product of S 87 in versus of the incubation time.

FGF 1 = experiment: potentialization of FGF 1 biological activity, tritiated thymidine incorporation in CCL39 cells; assay type: cell-based
Excerpt: (§1) The cells used in this example are CCL39 cells from the American Tissue Culture Collection. The conditions concerning culture and the measurement test of FGF biological activity are the same as those described in the publication by Tardieu and coll. in the Journal of Cellular Physiology, 1992. The FGF growth factors used are the FGF 1 and FGF 2 recombinant forms.
(§2) In these experiments, the FGF 1 or 2 is used at a dose corresponding to the effective dose (called ED50) in order to induce a stimulation of the biological activity of 50% of the dose inducing the maximum stimulation. The biological activity is measured by the ability to induce an increase of the incorporation of tritiated thymidine in the cells according to protocols extensively described in numerous publications such as the previously mentioned publication by Tardieu et coll. and also in French Patent 2 644 066. […] In addition to this ability to potentialize the biological activity of the FGFs, the HBGFPPs protect the FGFs against thermal degradations and the inactivation induced by the proteolytic action of trypsin (FIGS. 3 to 5). Similarly, these HBGFPPs protect FGF1 and 2 against an inactivation induced by the proteolytic activity of trypsin (5A and 5B).

FGF 2 = experiment: potentialization of FGF 2 biological activity, tritiated thymidine incorporation in CCL39 cells; assay type: cell-based
Excerpt: as §1, §2

FGF1 = experiment: protection of FGF1 against thermal degradation, activity on CCL39 cells; assay type: cell-based; settings: 20 μg heparin, 10 μg mesoglycan or sulodexide; 20° C. and 37° C. for 1, 7, 15, 30 days
Method: (§3) (a) and 37° C. (b) for 1, 7, 15, 30 days. The measurement of the biological activity presented in abscissa corresponds to the stimulation unit values (ED50) of the incorporation of tritiated thymidine in CCL39 cells.
as §2

FGF = experiment: semi-quantitative evaluation of FGF protection against trypsin, densitometry of radio-labelled FGF; assay type: biochemical; settings: FGF + trypsin + polymer; radio-labelled FGF found compared to quantity deposited
Method: As described above, a constant quantity of radioactive FGF is incubated under various conditions. After autoradiography of the reaction products, the non degraded quantity of radioactive FGF is quantified by densitometry. The values correspond to the percentage of radio-labelled FGF found, compared to the quantity deposited at the start of reaction (Table 5).

leukocytic elastase [3] = settings: cited from earlier work
leukocytic elastase [4] = experiment: inhibition of leukocytic elastase activity; assay type: biochemical; settings: 37° C., pH 8, elastase 8.3 nM, 0.10 mM MeO-Suc-Ala-Ala-Pro-Val-pNA
Method: The purified leukocytic elastase was obtained by Elastin Products Co (Owenville, Mo., U.S.A.) and the plasmin from SIGMA.
The enzymes under consideration are placed in solution in a 100 mM Tris-HCL buffer, pH 8 for the elastase and pH 7.4 for the plasmin, in the presence of 0.02% sodium azide and 0.01% Triton X100 for the plasmin. The substrate and enzyme concentrations are: 0.10 mM MeO-Suc-Ala-Ala-Pro-Val-pNA (paranitroanilide)for the elastase at 8.3 nM, and 0.20 mM dVal-Leu-dLys-pNA for the plasmin at 77 nM. The IC50 is determined for each of the conditions.
Batch EM5 corresponds to a T10 dextran of […]. The intermediate products of synthesis are identified by the symbols given above with an index number specifying the number of each substitution reaction.

125I-FGF1 = experiment: protection of 125I-FGF1 against proteolytic degradation by trypsin, gel autoradiography; assay type: biochemical; settings: 37° C., FIG. 5A
Method: (§4) Proteolytic digestion was carried out at 37° C. and the samples were separated by 18% polyacrylamide gel electrophoresis. The gels are dried and autoradiographed. The first track contains the ^125 I-FGF1 on its own.

125I-FGF2 = experiment: protection of 125I-FGF2 against proteolytic degradation by trypsin, gel autoradiography; assay type: biochemical; settings: 37° C., FIG. 5B
Method: as §4
The arrangement of the tracks is identical to that presented for the ^125 I-FGF1 in FIG. 5A.

FGF2 = experiment: protection of FGF2 against thermal degradation, activity on CCL39 cells; assay type: cell-based; settings: 20 μg heparin, 10 μg mesoglycan or sulodexide; 20° C. and 37° C. for 1, 7, 15, 30 days
Method: as §3, §2

[5] = single injection of 200 μl of 50 μ/ml, after 8 days of regeneration
[6] = beta TGF 50 ng + polymer 5000 μg + trypsin 500 μg
[7] = beta TGF 50 ng + polymer 5000 μg, no trypsin
[8] = 10 μg/ml mesoglycan or 20 μg/ml heparin, CCL39 cells

## dextran sulfate
EDL muscles [1]; [5]
  Diameter of muscles: 3.9 ± 0.4 mm
  Mean diameter of regenerated fibers: 28.2 ± 4.6
  Number of fibers on a half-section: 418
EDL muscles [1]; single injection, 8 days of regeneration
  muscular regeneration after crushing, macroscopic and histological findings (in words): no qualitative or quantitative modification of muscular regeneration; also recorded: neither heparin nor dextran sulfate present properties on muscular regeneration
Beta TGF
  protection of the beta TGF against proteolysis induced by trypsin (in words): neither sucrase, nor heparin nor dextran sulfate protect the beta TGF
Beta TGF; [6]
  Protection of the beta TGF (beta TGF biological activity): 0%
Beta TGF; [7]
  Protection of the beta TGF (beta TGF biological activity): 100%

## O=S(=O)(O)OC[C@H]1O[C@@](COS(=O)(=O)O)(O[C@H]2O[C@H](COS(=O)(=O)O)[C@@H](OS(=O)(=O)O)[C@H](OS(=O)(=O)O)[C@H]2OS(=O)(=O)O)[C@@H](OS(=O)(=O)O)[C@@H]1OS(=O)(=O)O [sucrase, sucrose octasulfate]
Beta TGF
  protection of the beta TGF against proteolysis induced by trypsin (in words): neither sucrase, nor heparin nor dextran sulfate protect the beta TGF
EDL muscles [2]
  Ratio regenerated/ contralateral intact (muscle weight): 0.620
  % ratio treated/ ratio degenerated: 87%

## dextran
Beta TGF; [6]
  Protection of the beta TGF (beta TGF biological activity): 0%
Beta TGF; [7]
  Protection of the beta TGF (beta TGF biological activity): 100%

## carboxymethyl dextran benzylamide sulfonate [CMDBS]
Complement system
  anticomplement activity, CH50: 1.1 µg
coagulation
  anticoagulant activity: 4 IU/mg
trypsin
  inhibiting power on the activity of trypsin (in words): no inhibiting power
trypsin; Trypsin 10 ug/ml + S87 + 5 ug/ml CMDBS
  trypsin activity: 100
trypsin; Trypsin 10 ug/ml + S87 + 50 ug/ml CMDBS
  trypsin activity: 100
trypsin; Trypsin 10 ug/ml + S87 + 500 ug/ml CMDBS
  trypsin activity: 100

## FGF 1: FGF 1 recombinant form growth factor
FGF 1; FGF 1 alone, CCL39 cells
  ED50 of FGF 1: 5 ng/mL

## heparin
FGF 2; [8]
  ED50 of FGF 2 in the presence of the polymer: 0.2 ng/mL
FGF 2; 20 μg of heparin, 10 μg of mesoglycan or 10 μg of sulodexide, FIG. 2B
  potentialization of the biological activity of FGF2 (in words): potentialization of the biological activity
coagulation
  anticoagulant activity: 175 IU/mg
FGF1
  protective effect against thermal degradation of FGF1 (in words): protective effect
FGF
  PROTECTION (in %) of the FGF: 100%
Beta TGF
  protection of the beta TGF against proteolysis induced by trypsin (in words): neither sucrase, nor heparin nor dextran sulfate protect the beta TGF
Beta TGF; after 10 min of incubation at 37° C. with trypsin
  biological activity of the beta TGF still present: less than 20%
Beta TGF; [6]
  % inhibiting activity of the incorporation of tritiated thymidine in CCL64 cells: 10%
Beta TGF; [7]
  % inhibiting activity of the incorporation of tritiated thymidine in CCL64 cells: 100%
Beta TGF; polymer 5000 μg alone, no beta TGF, no trypsin
  % inhibiting activity of the incorporation of tritiated thymidine in CCL64 cells: 0%
Leukocytic elastase [3]
  Ki: ~1 nM
Leukocytic elastase [4]
  Leukocytic elastase IC50: 1800 ng/mL
FGF 1; [8]
  ED50 of FGF 1 in the presence of the polymer: 0.4 ng/mL
FGF 1; 20 μg of heparin, 10 μg of mesoglycan or 10 μg of sulodexide, FIG. 2A
  potentialization of the biological activity of FGF1 (in words): potentialization of the biological activity
125I-FGF1
  protective effect against proteolytic degradation of 125I-FGF1 (in words): protective effect
125I-FGF2
  protective effect against proteolytic degradation of 125I-FGF2 (in words): protective effect
EDL muscles [2]
  Ratio regenerated/ contralateral intact (muscle weight): 0.590
  % ratio treated/ ratio degenerated: 86%
EDL muscles [2]; rat, in vivo
  muscular repair and regeneration (in words): neither heparin nor dextran sulfate present properties on muscular regeneration
FGF2
  protective effect against thermal degradation of FGF2 (in words): protective effect

## FGF 2: FGF 2 recombinant form growth factor
FGF 2; FGF 2 alone, CCL39 cells
  ED50 of FGF 2: 3 ng/mL

B1: STBI: trypsin inhibitor originating from soya, from Sigma (protein, UniProt P01070 25-205, looked up)
Trypsin inhibitor A: DFVLDNEGNPLENGGTYYILSDITAFGGIRAAPTGNERCPLTVVQSRNELDKGIGTIISSPYRIRFIAEGHPLSLKFDSFAVIMLCVGIPTEWSVVEDLPEGPAVKIGENKDAMDGWFRLERVSDDEFNNYKLVFCPQQAEDDKCGDIGISIDHDDGTRRLVVSKNKPLVVQFQKLDKESL
trypsin; Trypsin + S87 + STBI
  trypsin activity: 0
